The values below come from patent US20100204113A1, “USE OF STRESSCOPIN-RELATED PEPTIDE AS A THERAPEUTIC AGENT” (priority 2007, published 2010).

In general, % inhibition refers to the share of the control response that was lost under treatment. A high value points to strong suppression. As usually defined, the viability is the share of living cells, or the viability signal relative to a control.

In one data set the test system is HepG2-2.2.15 cells. Nature of the data set: Cytotoxicity in the HBV assay (dye uptake). Format: cell-based. As to conditions: peptide 10 micrograms per ml.
The next data set has as its system HIV-1IIIB. Briefly: HIV-1 antiviral assay (CPE reduction, MTS). Format: cell-based. As to conditions: peptide 10 micrograms per ml, 6 days post-infection.
Another data set deals with CEM-SS cells. Nature of the data set: Cytotoxicity in the HIV-1 assay (cell viability, MTS). As to conditions: peptide 10 micrograms per ml.
Data set [1] relates to Human Peripheral Blood Mononuclear Cells (PBMC). Nature of the data set: B cell proliferation assay (SAC plus Interleukin-2, 3H-thymidine). Type of data set: cell-based. The following applies: peptide 10 micrograms per ml, 3H-thymidine incorporation. In general terms: Uptake of a labelled nucleoside into DNA is a usual measure of proliferation.
Data set [2] deals with A549 cells. Nature of the data set: Cell cycle assay (propidium iodide, FACS). Type of data set: cell-based, human. As to conditions: peptide 10 micrograms per ml, 24 hours. The source says: The cell cycle consists of four distinct phases: […]
The subject of another data set is HCMV strain AD169. Nature of the data set: HCMV plaque reduction assay. The following applies: MRC-5 cells; peptide 10 micrograms per ml; 7-10 days.
A further data set deals with Streptococcus pneumoniae. Format: cell-based. As to conditions: 5 micrograms per ml.
The subject of data set [3] is Human Peripheral Blood Mononuclear Cells (PBMC). Briefly: T cell proliferation assay (PHA, 3H-thymidine). As to conditions: peptide 10 micrograms per ml, 3H-thymidine incorporation.
The subject of data set [4] is A549 cells. Briefly: Apoptosis prevention assay (C2 ceramide, Annexin-5). Type of data set: cell-based, human. The following applies: 30 min pretreatment with peptide 10 micrograms per ml, then C2 ceramide.
Another data set relates to Pseudomonas aeruginosa. Format: cell-based. As to conditions: 5 micrograms per ml.
For a further data set, the system named is MRSA. As to conditions: 5 micrograms per ml.
The nature of data set [5]: in vitro. As to conditions: human, CEM-SS cells.
Data set [6] is described as follows: Cytotoxicity in the HBV assay (dye uptake). Type of data set: cell-based. As to conditions: human, HepG2-2.2.15 cells, peptide 10 micrograms per ml, read-out: % Cell Viability.
Data set [7] deals with hepatitis B virus (HBV) ayw strain. Nature of the data set: HBV assay (secreted HBV DNA, TaqMan PCR). Type of data set: cell-based. As to conditions: HepG2-2.2.15; peptide 10 micrograms per ml; six days; HBV DNA in supernatant.
Data set [8] concerns Primary Human endothelial cells (HUVEC). Briefly: Endothelial cell migration assay. Type of data set: cell-based. The following applies: peptide 10 micrograms per ml, 22 hours.
Data set [9] can be described thus: in vitro. The following applies: human, MRC-5 cells.
Another data set relates to HUVEC. Nature of the data set: Endothelial tube formation assay. Format: cell-based, human. As to conditions: peptide 10 micrograms per ml, 20 hours. An excerpt: Positive control was vehicle only.
The next data set has as its system spleen cells. Nature of the data set: Th1/Th2 cytokine profiling assay (Ovalbumin restimulation, CBA kit). Format: cell-based, Balb/c mice. As to conditions: peptide 10 micrograms per ml, 72 hours.
Data set [10] concerns macrophages prepared from human PBMC. Briefly: TNF alpha production assay (LPS-stimulated macrophages, ELISA). Format: cell-based. The following applies: peptide 10 micrograms per ml, 30 min preincubation, lipopolysaccharide 200 ng/ml overnight. An excerpt:
Not stimulated macrophages served as negative background control.

The test system of the next data set is RAW 264.7 cells. Nature of the data set: Phagocytosis assay (Fluorescein-labeled Escherichia coli, flow cytometry). Type of data set: cell-based, mouse. As to conditions: peptide 10 micrograms per ml, 30 min preincubation, 60 min ingestion. In general terms: In flow cytometry, cells or beads pass a laser one at a time.
In data set [11] the test system is A549 cells. Briefly: Apoptosis induction assay (Annexin-5). Type of data set: cell-based, human. As to conditions: peptide 10 micrograms per ml, 24 hours.
Excerpt: Human A549 cells (carcinomic human alveolar basal epithelial cells) were utilized in the experiments employing the Annexin-5 apoptosis assay.
A further data set deals with MRC-5 cells. The following applies: human, 6 days.

No end group written: not given here.

In the case of `Nc1ccn([C@@H]2CS[C@H](CO)O2)c(=O)n1` [3TC, Lamivudine, reference compound], in the data set on HepG2-2.2.15 cells, the “% Cell viability” value is 95.8%.

For the compound `Cc1cn([C@H]2C[C@H](N=[N+]=[N-])[C@@H](CO)O2)c(=O)[nH]c1=O` [AZT, reference compound], in the data set on HIV-1IIIB, the “% CPE reduction in HIV-1 infected CEM-SS cells” value was found to be 99%. The “% Cell viability” value in the data set on CEM-SS cells amounted to 97%.

For the compound “HPGSRIVLSLDVPIGLLQILLEQARARAAREQATTNARILARV-NH2 [Stresscopin-related peptide]”, in data set [1], the “% of SAC/IL2 induced control” value is given as 91.4%. In addition, in the data set with A549 cells [2], the “Cell cycle analysis G0/G1” value is on record as 56.9, the “Cell cycle analysis G2/M” value is 9.7 and the “Cell cycle analysis S” value was determined as 33.4. In addition, the “% plaque reduction” value with HCMV strain AD169 is reported as 0.0%. Moreover, in the data set with Streptococcus pneumoniae, the “% inhibition” value is listed as 0.0%. Further, the “% of PHA induced control” value in data set [3] is listed as 92.6%. Also, the “% prevention of ceramide induced apoptosis” value with A549 cells [4] is 0.0%. Also, the “% inhibition” value with Pseudomonas aeruginosa is recorded as 0.0%. Besides, in the data set on MRSA, the “% inhibition” value came out at 0.0%. In “in vitro [5]”, this compound registered a viability at 10 micrograms per ml of 100%. Moreover, the “% CPE reduction in HIV-1 infected CEM-SS cells” value with HIV-1IIIB is on record as 0.0%. Besides, the viability at 144 h, 10 micrograms per ml in [6] is 100%. For the same compound, in data set [7], the “% inhibition of HBV replication in HEP G2 cells” value is 0.0%. Further, in [8], the “% inhibition of migration” value was determined as 15%. This compound also came in with a viability at 144 h, 10 micrograms per ml in the data set “in vitro [9]” of 100%. Further, the “% inhibition of tube formation” value in the data set with HUVEC was determined as 35%. In addition, in the data set on spleen cells, the “IFNγ spleen cells; TH1 response (% of control)” value is listed as 105.6 % of control, the “IL-2 spleen cells (% of control)” value was 66.8 % of control, the “IL-4 spleen cells; TH2 response (% of control)” value was 68.9 % of control and the “IL-5 spleen cells; TH2 response (% of control)” value is listed as 67.0 % of control. For the same compound, in the data set on spleen cells, the “TNF-a spleen cells; TH1 response (% of control)” value is 125.6 % of control. Also, in data set [10], the “% of LPS induction” value stood at 117.0%. The “% of control phagocytosis” value with RAW 264.7 cells turned out to be 131.4%. Also, in the data set on A549 cells [11], the “% of induction” value came out at 1.2%.

Regarding `Nc1nc(O)c2ncn(COC(CO)CO)c2n1` [Ganciclovir], in the data set on MRC-5 cells, the “% Cell viability” value is recorded as 100%.
